Data published in publication PMC6920827, “Characterization of the Expression and Functions of Two Odorant-Binding Proteins of Sitophilus zeamais Motschulsky (Coleoptera: Curculionoidea)” (Insects, 2019).
“Also recorded” adds a separate entry of the source. Read-outs that look alike come from different tables or passages of the source.

Experiments:
[1] = molecular target: SzeaOBP1 (Sitophilus zeamais, UniProt A0A4P9CZ78); assay: Fluorescence competitive binding assay (1-NPN probe) with recombinant SzeaOBP1; details: for binding to SzeaOBP1, in words: fluorescence competitive binding
Chain of SzeaOBP1 (A0A4P9CZ78 entry or part of it): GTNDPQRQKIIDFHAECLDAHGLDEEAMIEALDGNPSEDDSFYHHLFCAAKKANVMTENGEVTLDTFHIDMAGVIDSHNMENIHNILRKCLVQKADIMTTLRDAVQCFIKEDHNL
Experimental: (§1) Emission fluorescence spectra were recorded on a Fluoromax-4500 fluorescence spectrophotometer (Hitachi, Tokyo, Japan) at room temperature in right-angle configuration, with a 1 cm light-path quartz cuvette and 5 nm slits for both excitation and emission. The protein was dissolved in 50 mM Tris-HCl buffer (pH 7.4), and ligands were added as 1 mM methanol solutions. A methanol solution of N-Phenyl-1-naphthylamine (1-NPN) (1 mM) was used as the fluorescent probe, and chromatography-grade methanol was used as the solvent. For determination of the binding constants of the SzeaOBPs with the probe, the excitation wavelength was set at 337 nm, and the emission wavelength was increased from 370 to 500 nm for scanning. The target SzeaOBP proteins were diluted in Tris-HCl buffer (pH 7.4) to a final concentration of 2 μM. After the sample was added, the fluorescence intensity was allowed to stabilize (approximately 15 s), and the maximum fluorescence intensity was recorded; the binding constant between the protein and probe was determined. This process was repeated three times for each sample. Then, the ligands (odorant standard samples) were diluted with pure methanol for competitive binding analysis. The final concentration of each ligand was […]. The final concentration of ligands in the colorimetric dish increased by 2 μM upon adding the ligands one by one. […] The binding constants between the target SzeaOBP proteins and the ligands were determined. The fluorescence intensity was measured by adding 50 mM Tris-HCl buffer, SzeaOBP protein, and the fluorescence probe 1-NPN to the colorimetric dish for fluorescence measurement. The final concentration was 2 μM. When the fluorescence intensity was stable, the maximum fluorescence intensity was recorded, and then the ligands dissolved in methanol were added to the colorimetric dish one by one. The concentration increased from 2 μM, and the changes in fluorescence intensity were recorded. Each measurement was repeated three times.
(§2) To calculate the binding constants, the fluorescence intensity and ligand concentration were plotted using GraphPad Prism 5. Assuming that 1-NPN binds to the protein at a 1:1 ratio and that the protein was 100% active, the curve was linearized using a Scatchard plot.

[2] = molecular target: SzeaOBP28 (Sitophilus zeamais, UniProt A0A4V1GPX2); assay: Fluorescence competitive binding assay (1-NPN probe) with recombinant SzeaOBP28; details: for binding to SzeaOBP28, in words: fluorescence competitive binding
Chain of SzeaOBP28 (A0A4V1GPX2 entry or part of it): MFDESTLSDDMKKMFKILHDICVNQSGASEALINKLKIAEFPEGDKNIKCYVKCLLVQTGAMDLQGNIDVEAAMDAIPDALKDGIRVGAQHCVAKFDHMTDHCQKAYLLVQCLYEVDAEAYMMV
Experimental: as §1, §2

[3] = system: adult S. zeamais; assay: Behavioural experiment in a Y-tube olfactometer, normal adults; assay type: in vivo, Sitophilus zeamais; details: normal insects, 10 min observation
Experimental: The behavioral experiments were designed to test the results for selected odorants. The odorant compounds used in behavioral experiments are from Table 1. To avoid the effects of temperature and light on the experiment, the evaluations were performed in a constant temperature and humidity (CTH) room at 28 ± 1 °C and 80% relative humidity under dim light supplied by a red fluorescent tube with no natural lighting. A Y-tube olfactometer system that was previously described by Yusuf and Takabayashi was used to test the attractiveness of different odorant treatments to adult maize weevils. The system comprised a central tube (10 cm long) and two lateral arms (each 15 cm long and 15 mm wide). The angles between the two arms were 75°. Each arm was connected to a glass chamber (200 mL capacity) holding the different odorants. The different parts of the device were connected in the following order: air pump, activated carbon filter, distilled water humidifier, odorant source device, gas flow meter, and Y-tube olfactometer. The parts were connected by Teflon tubes. Airflow through both arms was generated by applying air pressure, and the air was purified using a charcoal-filled gas wash bottle. The airflow through the arms of the Y-tube (150 mL/min/arm) was adjusted by using flow metres, which were positioned between the flasks and the Y-tube. A clean Y-tube was used for each test to avoid carryover of odorants.
Before bioassays, according to the experimental requirements, the odorant source was placed in the odorant source device, which was then ventilated for 15 min so that the odorant filled the tube to ensure accuracy of the test results. The antennae and appendages of the selected insects were verified to be intact, and the insects were confirmed to be active. The insects were introduced from the base of the main arm of the Y-tube olfactometer. The selected odorant was used for the treatment group, and a blank was used for the control group. A single adult S. zeamais insect was introduced into the Y-tube olfactometer at the entrance of the stem, with a maximum observation duration of 10 min per beetle, and the responses were considered positive when the insects reached at least 2 cm along the arm connected to the test chambers. […] Insects were used only once and then discarded. Each odorant was used to test 30 adult maize weevils, and the number of male and female insects per test was the same. Three groups of experiments were repeated for three times.

[4] = calculated from IC50 with K1-NPN 8.590 μM, protein and 1-NPN 2 μM, Tris-HCl pH 7.4, read-out: Ki SzeaOBP1
[5] = displacement of 1-NPN, protein and 1-NPN 2 μM, Tris-HCl pH 7.4, read-out: IC50 SzeaOBP1
[6] = calculated from IC50 with K1-NPN 7.214 μM, protein and 1-NPN 2 μM, Tris-HCl pH 7.4, read-out: Ki SzeaOP28
[7] = displacement of 1-NPN, protein and 1-NPN 2 μM, Tris-HCl pH 7.4, read-out: IC50 SzeaOP28

Row | Compound | Ki [1, 4] [µM] | IC50 [1, 5] [µM] | Ki [2, 6] [µM] | IC50 [2, 7] [µM] | also measured
1 | CCCCCC=O [1-Pentanecarbaldehyde] |  |  |  |  | IC50 [1]: 6.07 ± 0.154 µM; Ki [1]: 5.18 ± 0.132 µM; IC50 [2]: 59.4 ± 1.21 µM; Ki [2]: 48.7 ± 0.852 µM
2 | CCC(C)C=O (stereo not drawn) [2-Methylbutyraldehyde] | 4.2 ± 0.087 | 4.92 ± 0.102 | > 49.2 | > 60 | behavioural response (attraction) of male and female adults vs blank control [3]: Significant differences
3 | CC(C)CC=O [3-Methylbutanal] | 6.51 ± 0.163 | 7.62 ± 0.191 | > 49.2 | > 60 | 
4 | COc1cc(C=O)ccc1O [4-Hydroxy-3-methoxybenzaldehyde] |  |  |  |  | IC50 [1]: 4.37 ± 0.203 µM; Ki [1]: 3.73 ± 0.173 µM; IC50 [2]: 24.7 ± 2.34 µM; Ki [2]: 20.2 ± 1.92 µM; binding to SzeaOBP28, in words [2]: pronounced binding affinity; behavioural response (attraction) of male and female adults vs blank control [3]: responded strongly; also recorded: stimulated activity in a significantly higher number of normal male and female weevils than the control treatment
5 | CC(=O)CCC=C(C)C [6-Methyl-5-hepten-2-one] |  |  |  |  | IC50 [1]: 6.5 ± 0.15 µM; Ki [1]: 5.55 ± 0.128 µM; IC50 [2]: 45.8 ± 1.23 µM; Ki [2]: 37.6 ± 1.01 µM
6 | CC1=CC[C@@H]2C[C@H]1C2(C)C [(+)-a-Pinene] | > 51.2 | > 60 | > 49.2 | > 60 | binding to SzeaOBP1, in words [1]: did not bind; binding to SzeaOBP28, in words [2]: did not bind
7 | CC(=O)O [Acetic acid (glacial)] | 15.7 ± 0.717 | 18.4 ± 0.84 | > 49.2 | > 60 | 
8 | CC(C)=O [Acetone] | 4.54 ± 0.172 | 5.32 ± 0.201 | 39.8 ± 0.731 | 48.6 ± 0.861 | 
9 | O=Cc1ccccc1 [Benzaldehyde] |  |  |  |  | IC50 [1]: 5.2 ± 0.092 µM; Ki [1]: 4.44 ± 0.079 µM; IC50 [2]: > 60 µM; Ki [2]: > 49.2 µM
10 | COCCOC(=O)c1ccccc1C(=O)OCCOC [Bis(methylglycol) phthalate, Bis(2-methoxyethyl) phthalate] |  |  |  |  | IC50 [1]: 4.76 ± 0.147 µM; Ki [1]: 4.07 ± 0.125 µM; IC50 [2]: 38.87 ± 0.2 µM; Ki [2]: 31.86 ± 0.164 µM
11 | CCCCCCCCO [Capryl alcohol] | 6.67 ± 0.199 | 7.81 ± 0.233 | > 49.2 | > 60 | 
12 | CCCCCCCCCCCCCCCCO [Cetanol] | 2.75 ± 0.139 | 3.22 ± 0.162 | > 49.2 | > 60 | binding to SzeaOBP1, in words [1]: extremely high binding affinity; behavioural response (attraction) of male and female adults vs blank control [3]: Significant differences
13 | CCCCCCCCCC=O [Decanal] | > 51.2 | > 60 | > 49.2 | > 60 | binding to SzeaOBP1, in words [1]: did not bind; binding to SzeaOBP28, in words [2]: did not bind
14 | CCCCCCC=O [Heptaldehyde] | 4.87 ± 0.111 | 5.71 ± 0.13 | > 49.2 | > 60 | 
15 | CC(C)C=O [Isobutyraldehyde] | 4.26 ± 0.138 | 4.99 ± 0.162 | > 49.2 | > 60 | 
16 | CCCCCCO [Ligand 1-Hexanol, 1-Hexanol] | 4.67 ± 0.159 | 5.47 ± 0.186 | > 49.2 | > 60 | 
17 | c1ccc(Nc2cccc3ccccc23)cc1 [Ligand 1-NPN, N-Phenyl-1-naphthylamine, reference compound] |  |  |  |  | Kd [1]: 8.59 µM; Kd [2]: 7.21 µM
18 | CCCCCCCCCO [Ligand 1-Nonanol, 1-Nonanol] | 6.94 ± 0.234 | 8.13 ± 0.274 | > 49.2 | > 60 | 
19 | CCCC(C)=O [Ligand 2-Pentanone, 2-Pentanone] |  |  |  |  | IC50 [1]: 11.6 ± 0.312 µM; Ki [1]: 9.92 ± 0.267 µM; IC50 [2]: > 60 µM; Ki [2]: > 49.2 µM
20 | CCCCC/C=C\C/C=C\CCCCCCCC(=O)O [Linoleic acid] | > 51.2 | > 60 | > 49.2 | > 60 | binding to SzeaOBP1, in words [1]: did not bind; binding to SzeaOBP28, in words [2]: did not bind
21 | Cc1occc(=O)c1O [Maltol (3-hydroxy-2-methyl-4-pyrone)] | 5.28 ± 0.333 | 6.18 ± 0.39 | > 49.2 | > 60 | 
22 | C=CC(=C)CCC=C(C)C [Myrcene (stabilized with BHT)] | 30.3 ± 0.798 | 35.5 ± 0.931 | > 49.2 | > 60 | 
23 | CCCCCCCCCCCCCCCC [N-Hexadecane, N-hexadecane] | > 51.2 | > 60 | > 49.2 | > 60 | 
24 | CCCCCCCCC=O [Nonanal] | 4.42 ± 0.095 | 5.18 ± 0.111 | 48.2 ± 1.1 | 58.9 ± 1.34 | 
25 | CCCCCCCCCCCCCCCC(=O)O [Palmitic Acid, Palmitic acid] | 24.2 ± 1.78 | 28.3 ± 2.08 | 40.8 ± 1.41 | 49.7 ± 1.72 | 
26 | CCCCCCCCCCCCCCC [Pentadecane] | > 51.2 | > 60 | > 49.2 | > 60 | 
27 | CCCCC=O [Valeraldehyde] | 4.88 ± 0.103 | 5.71 ± 0.121 | > 49.2 | > 60 | behavioural response (attraction) of male and female adults vs blank control [3]: responded strongly
28 | CCCCCCCC=O [n-Octanaldehyde] | 3.22 ± 0.103 | 3.77 ± 0.12 | > 49.2 | > 60 | behavioural response (attraction) of male and female adults vs blank control [3]: no obvious effect
